Reference: US20240270810A1, “PREPARATION AND APPLICATION OF POLYPEPTIDE” (GUANGDONG RAYNOVENT BIOTECH CO., LTD., priority 2021, published 2024)

T1: GIPR (Homo sapiens, UniProt P48546)
T1 construct: host or cells: CHO
T1 sequence (P48546 22-466): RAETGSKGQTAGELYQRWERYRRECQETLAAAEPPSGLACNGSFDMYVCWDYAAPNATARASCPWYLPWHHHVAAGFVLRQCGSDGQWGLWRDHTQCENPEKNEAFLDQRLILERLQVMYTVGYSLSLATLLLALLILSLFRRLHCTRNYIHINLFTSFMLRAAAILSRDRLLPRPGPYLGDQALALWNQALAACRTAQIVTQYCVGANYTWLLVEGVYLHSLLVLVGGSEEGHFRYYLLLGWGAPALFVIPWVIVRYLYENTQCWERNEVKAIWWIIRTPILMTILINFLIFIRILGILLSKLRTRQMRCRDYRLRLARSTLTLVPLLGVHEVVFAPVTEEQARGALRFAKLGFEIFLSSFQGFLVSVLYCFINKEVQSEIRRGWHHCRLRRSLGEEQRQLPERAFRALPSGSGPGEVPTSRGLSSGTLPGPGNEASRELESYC

T2: GIPR (UniProt P48546 22-466, limits assumed)
T2 sequence (looked up): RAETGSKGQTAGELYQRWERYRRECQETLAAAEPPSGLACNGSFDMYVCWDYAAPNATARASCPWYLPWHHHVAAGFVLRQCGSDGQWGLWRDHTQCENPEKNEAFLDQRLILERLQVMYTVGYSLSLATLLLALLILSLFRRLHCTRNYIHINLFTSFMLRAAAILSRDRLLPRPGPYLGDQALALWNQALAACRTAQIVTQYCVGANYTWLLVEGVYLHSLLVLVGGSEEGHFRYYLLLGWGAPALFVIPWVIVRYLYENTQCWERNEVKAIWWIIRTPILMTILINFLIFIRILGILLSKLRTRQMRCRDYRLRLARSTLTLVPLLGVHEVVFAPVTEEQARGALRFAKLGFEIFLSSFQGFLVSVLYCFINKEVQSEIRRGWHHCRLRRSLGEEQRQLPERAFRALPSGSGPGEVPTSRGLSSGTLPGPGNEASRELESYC


Tests used:
[1] = target: T3, GLP-1R (Homo sapiens, UniProt P43220); experiment: In vitro GLP-1R agonistic activity test (cAMP kit); type: cell-based; conditions: HEK293 host cells
T3 construct: host or cells: HEK293
Description: (§1) The cell lines were constructed by Wuxi […] (Shanghai) Co., Ltd. See details in Table 1 below. [table] [table] The test compounds were diluted at a 4-fold dilution factor in 10 points, starting from an initial concentration of 30 μM. The dilution was carried out by Bravo. • 1) 100 nL of compounds were transferred to an OptiPlate-384 plate by Echo. • 2) The OptiPlate-384 plate was centrifuged at 1000 rpm for 5 s. • 1) A GLP-1R/GIPR cell cryovial was placed in warm water at 37° C. for rapid thawing. • 2) The cell suspension was transferred into a 15 mL Transfer centrifugal tube and rinsed with 10 mL of HBSS gently. • 3) The centrifugal tube was centrifuged at 1000 rpm at room temperature for 1 min. • 4) The supernatant was discarded. • 5) The bottom cells were gently dispersed, then gently rinsed with 10 mL of HBSS, the centrifugal tube was centrifuged to settle the cells, and finally the cells were resuspended in an experimental buffer. • 6) Cell density and viability were measured by Vi-cell. • 7) The GLP-1R/GIPR cells were diluted with the experimental buffer to a concentration of 2.0*10^5/mL. • 8) […] of the diluted cell suspension was transferred into the OptiPlate-384 plate. • 9) Incubation was performed at room temperature for 30 min. • 1) 10 μL of 800 nM gradient diluted cAMP standard was added into the empty wells of the OptiPlate-384 plate. • 2) 10 μL of cAMP assay reagent was added. • 3) The OptiPlate-384 plate was covered with TopSeal-A film and incubated at room temperature for 60 min. The TopSeal-A film was removed, and readout was performed on En Vision.

[2] = target: T1, GIPR; experiment: In vitro GIPR agonistic activity test (cAMP kit); type: cell-based; conditions: CHO host cells
Description: as §1, with “[table] [table]” left out

[3] = target: GLP-1R (UniProt P43220 24-463, limits assumed); experiment: cell-based or functional assay
[4] = target: T2, GIPR; experiment: cell-based or functional assay

T3 sequence (P43220 24-463, species assumed): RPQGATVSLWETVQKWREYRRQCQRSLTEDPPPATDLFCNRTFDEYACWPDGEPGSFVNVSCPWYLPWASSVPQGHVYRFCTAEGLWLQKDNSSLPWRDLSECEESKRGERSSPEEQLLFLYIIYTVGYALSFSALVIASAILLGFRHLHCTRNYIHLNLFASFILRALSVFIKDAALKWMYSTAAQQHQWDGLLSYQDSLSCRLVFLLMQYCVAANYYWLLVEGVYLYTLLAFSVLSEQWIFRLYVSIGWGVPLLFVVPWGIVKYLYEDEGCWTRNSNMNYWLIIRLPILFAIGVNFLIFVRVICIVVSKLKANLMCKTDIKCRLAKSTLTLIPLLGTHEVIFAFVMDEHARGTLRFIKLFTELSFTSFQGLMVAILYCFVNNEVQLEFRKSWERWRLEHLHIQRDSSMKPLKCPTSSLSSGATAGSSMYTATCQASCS

Row | Molecule | EC50 ([1]; with 1% HSA) | EC50 ([1]; without 1% HSA) | EC50 ([2]; without 1% HSA) | further results
1 | CC[C@H](C)[C@H](NC(=O)[C@H](CC(C)C)NC(=O)[C@H](Cc1c[nH]c2ccccc12)NC(=O)[C@@H]1CCCCNC(=O)CN(C(=O)COCCOCCNC(=O)COCCOCCNC(=O)CC[C@H](NC(=O)CCCCCCCCCCCCCCCCCCC(=O)O)C(=O)O)CC(=O)NCCCC[C@H](NC(=O)[C@H](CCC(N)=O)NC(=O)[C@H](C)NC(=O)[C@@H](NC(=O)[C@H](CCCCN)NC(=O)[C@H](CC(=O)O)NC(=O)[C@H](CC(C)C)NC(=O)C(C)(C)NC(=O)[C@@H](NC(=O)[C@H](CO)NC(=O)[C@H](Cc2ccc(O)cc2)NC(=O)[C@H](CC(=O)O)NC(=O)[C@H](CO)NC(=O)[C@@H](NC(=O)[C@H](Cc2ccccc2)NC(=O)[C@@H](NC(=O)CNC(=O)[C@H](CCC(=O)O)NC(=O)C(C)(C)NC(=O)[C@@H](N)Cc2ccc(O)cc2)[C@@H](C)O)[C@@H](C)O)[C@@H](C)CC)[C@@H](C)CC)C(=O)N[C@@H](C)C(=O)N[C@@H](Cc2ccccc2)C(=O)N[C@@H](C(C)C)C(=O)N1)C(=O)N[C@@H](C)C(=O)NCC(=O)NCC(=O)N1CCC[C@H]1C(=O)N[C@@H](CO)C(=O)N[C@@H](CO)C(=O)NCC(=O)N[C@@H](C)C(=O)N1CCC[C@H]1C(=O)N1CCC[C@H]1C(=O)N1CCC[C@H]1C(=O)N[C@@H](CO)C(N)=O [WX-004] | 84.3 nM | 1.86 nM | 1.36 nM | EC50 ([2]; with 1% HSA): 21.4 nM
2 | CC[C@H](C)[C@H](NC(=O)[C@H](CC(C)C)NC(=O)[C@H](Cc1c[nH]c2ccccc12)NC(=O)[C@@H]1CCCCNC(=O)CN(C(=O)COCCOCCNC(=O)COCCOCCNC(=O)CC[C@H](NC(=O)CCCCCCCCCCCCCCCCCCC(=O)O)C(=O)O)CC(=O)NCCCC[C@H](NC(=O)[C@H](CCC(N)=O)NC(=O)[C@H](C)NC(=O)[C@@H](NC(=O)[C@H](CCCCN)NC(=O)[C@H](CC(=O)O)NC(=O)[C@H](CC(C)C)NC(=O)C(C)(C)NC(=O)[C@@H](NC(=O)[C@H](CO)NC(=O)[C@H](Cc2ccc(O)cc2)NC(=O)[C@H](CC(=O)O)NC(=O)[C@H](CO)NC(=O)[C@@H](NC(=O)[C@H](Cc2ccccc2)NC(=O)[C@@H](NC(=O)CNC(=O)[C@H](CCC(=O)O)NC(=O)C(C)(C)NC(=O)[C@@H](N)Cc2ccc(O)cc2)[C@@H](C)O)[C@@H](C)O)[C@@H](C)CC)[C@@H](C)CC)C(=O)N[C@@H](C)C(=O)N[C@@H](Cc2ccccc2)C(=O)N[C@@H]([C@@H](C)CC)C(=O)N1)C(=O)N[C@@H](C)C(=O)NCC(=O)NCC(=O)N1CCC[C@H]1C(=O)N[C@@H](CO)C(=O)N[C@@H](CO)C(=O)NCC(=O)N[C@@H](C)C(=O)N1CCC[C@H]1C(=O)N1CCC[C@H]1C(=O)N1CCC[C@H]1C(=O)N[C@@H](CO)C(N)=O [WX-003] | 14 nM | 0.54 nM | 1.07 nM | 
3 | CC[C@H](C)[C@H](NC(=O)[C@H](CC(C)C)NC(=O)[C@H](Cc1c[nH]c2ccccc12)NC(=O)[C@H](CCC(=O)O)NC(=O)[C@@H](NC(=O)[C@H](Cc1ccccc1)NC(=O)[C@H](C)NC(=O)[C@@H]1CCCCNC(=O)CN(C(=O)COCCOCCNC(=O)COCCOCCNC(=O)CC[C@H](NC(=O)CC[C@H](NC(=O)CCCCCCCCCCCCCCCCCCC(=O)O)C(=O)O)C(=O)O)CC(=O)NCCCC[C@H](NC(=O)[C@H](CCCCN)NC(=O)[C@H](CC(=O)O)NC(=O)[C@H](CC(C)C)NC(=O)C(C)(C)NC(=O)[C@@H](NC(=O)[C@H](CO)NC(=O)[C@H](Cc2ccc(O)cc2)NC(=O)[C@H](CC(=O)O)NC(=O)[C@H](CO)NC(=O)[C@@H](NC(=O)[C@H](Cc2ccccc2)NC(=O)[C@@H](NC(=O)CNC(=O)[C@H](CCC(=O)O)NC(=O)C(C)(C)NC(=O)[C@@H](N)Cc2ccc(O)cc2)[C@@H](C)O)[C@@H](C)O)[C@@H](C)CC)C(=O)N[C@@H](C)C(=O)N[C@@H](CCC(N)=O)C(=O)N1)C(C)C)C(=O)N[C@@H](C)C(=O)NCC(=O)NCC(=O)N1CCC[C@H]1C(=O)N[C@@H](CO)C(=O)N[C@@H](CO)C(=O)NCC(=O)N[C@@H](C)C(=O)N1CCC[C@H]1C(=O)N1CCC[C@H]1C(=O)N1CCC[C@H]1C(=O)N[C@@H](CO)C(N)=O [WX-013] |  | 0.057 nM | 0.18 nM | 
4 | CC[C@H](C)[C@H](NC(=O)[C@H](CC(C)C)NC(=O)[C@H](Cc1c[nH]c2ccccc12)NC(=O)[C@H](CCC(=O)O)NC(=O)[C@@H](NC(=O)[C@H](Cc1ccccc1)NC(=O)[C@H](C)NC(=O)[C@@H]1CCCCNC(=O)CN(C(=O)COCCOCCNC(=O)COCCOCCNC(=O)CC[C@H](NC(=O)CC[C@H](NC(=O)CCCCCCCCCCCCCCCCC(=O)O)C(=O)O)C(=O)O)CC(=O)NCCCC[C@H](NC(=O)[C@H](CCCCN)NC(=O)[C@H](CC(=O)O)NC(=O)[C@H](CC(C)C)NC(=O)C(C)(C)NC(=O)[C@@H](NC(=O)[C@H](CO)NC(=O)[C@H](Cc2ccc(O)cc2)NC(=O)[C@H](CC(=O)O)NC(=O)[C@H](CO)NC(=O)[C@@H](NC(=O)[C@H](Cc2ccccc2)NC(=O)[C@@H](NC(=O)CNC(=O)[C@H](CCC(=O)O)NC(=O)C(C)(C)NC(=O)[C@@H](N)Cc2ccc(O)cc2)[C@@H](C)O)[C@@H](C)O)[C@@H](C)CC)C(=O)N[C@@H](C)C(=O)N[C@@H](CCC(N)=O)C(=O)N1)C(C)C)C(=O)N[C@@H](C)C(=O)NCC(=O)NCC(=O)N1CCC[C@H]1C(=O)N[C@@H](CO)C(=O)N[C@@H](CO)C(=O)NCC(=O)N[C@@H](C)C(=O)N1CCC[C@H]1C(=O)N1CCC[C@H]1C(=O)N1CCC[C@H]1C(=O)N[C@@H](CO)C(N)=O [WX-014] |  | 0.071 nM | 0.24 nM | 
5 | YXEGTFTSDYSIXLDKIAQKAFIKWLIAGGPSSGAPPPS (Aib at positions 2 and 13; C-terminal amide (-NH2); side-chain amino groups of Lys 20 and Lys 24 bridged by iminodiacetic acid (from Fmoc-Ida-OH) whose nitrogen carries Intermediate A-1 (fatty acid side chain, structure only in a drawing)) [polypeptide compound WX-001] |  |  |  | EC50 (nM), cAMP assay on GLP-1R HEK293 cells, (+) 1% HSA [3]: 16.6 nM; EC50 (nM), cAMP assay on GLP-1R HEK293 cells, (-) 1% HSA [3]: 0.0596 nM; Ratio of EC50 (+) 1% HSA to (-) 1% HSA, cAMP assay [3]: 279; EC50 (nM), cAMP assay on GIPR CHO cells, (+) 1% HSA [4]: 16 nM; EC50 (nM), cAMP assay on GIPR CHO cells, (-) 1% HSA [4]: 0.324 nM; Ratio of EC50 (+) 1% HSA to (-) 1% HSA, cAMP assay [4]: 49.3
